Earlier results as cited in patent US20030180704A1, “Ice-controlling molecules and uses thereof” (priority 2002, published 2003).

Test system: Crithidia fasciculata
Conditions: cryopreservation at -20 C, different media

| Structure (SMILES) | toxicity to Crithidia fasciculata |
| --- | --- |
| OC1CCCC(O)C1 (stereo not shown) [1,3-cyclohexanediol] | toxic |

Same assay, conditions: stored at -20 C, different media

| Structure (SMILES) | ability to cryopreserve Crithidia fasciculata without toxicity |
| --- | --- |
| CC(O)CO (stereo not shown) [propylene glycol] | potential outstanding cryoprotectants |
| OCCC(O)CO (stereo not shown) [1,2,4-butantriol] | potential outstanding cryoprotectants |
| C[S+](C)[O-] [dimethylsulfoxide] | potential outstanding cryoprotectants |
| CC(=O)NCCO [N-acetylethanolamine] | potential outstanding cryoprotectants |
| OC1CCC(O)CC1 (stereo not shown) [1,4-cyclohexanediol] | potential outstanding cryoprotectants |
| OCC(O)CO [glycerol] | best cryoprotectant |
